The target of data set [1] is T1, lipase (Lipolase 100L, Type EX) (Thermomyces lanuginosus, UniProt O59952).
T1 construct: purchased Novozymes through Brenntag North America Lipolase 100L, Type EX
T1 sequence (O59952 23-291): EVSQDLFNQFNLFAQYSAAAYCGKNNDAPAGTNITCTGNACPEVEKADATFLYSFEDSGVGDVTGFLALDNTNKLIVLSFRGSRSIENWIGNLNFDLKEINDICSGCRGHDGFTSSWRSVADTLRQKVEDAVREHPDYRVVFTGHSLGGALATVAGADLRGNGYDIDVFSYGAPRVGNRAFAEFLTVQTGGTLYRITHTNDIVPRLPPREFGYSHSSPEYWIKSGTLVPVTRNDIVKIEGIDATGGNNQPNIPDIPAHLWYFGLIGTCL
Nature of the data set: Enzyme-triggered hydrogel degradation and drug release. Format: in vitro ADME. On the procedure: Encapsulation and release of curcumin was previously studied by the Ultra-Violet absorbance spectroscopy (λmax at 424 nm). Absorbance spectrum of modified Apn-7-COOH was similar to that of Apn (FIG. 6B). In this instance, enzyme-triggered single and multiple drug delivery has been carried out using two sets of hydrogel samples, i.e., hydrogels of Apn-7-COOH and Apn-8-Apn with and without curcumin. In the first set, lipase (Lipolase 100L, Type EX, lipase units 100 KLU/g) was added to the preformed hydrogel of Apn-7-COOH (2 wt %) and kept it at 37° C. which is lower than gel melting temperature. It was anticipated that lipase (esterase) would hydrolyze the ester bond of prodrug-based gelator (Apn-7-COOH) to release acetaminophen and dicarboxylic acid as the hydrogel degrades. As expected, after 48 hours the gel completely degraded and became a clear solution.
To test this further, and examine multiple (two) drugs delivery (FIGS. 6A-6E), curcumin was encapsulated in the hydrogel of Apn-7-COOH (2 wt %) and to that lipase was added and kept it at 37° C. Absorbance spectra were recorded on aliquots which were collected (after the addition of enzyme to the hydrogel) at regular intervals (FIG. 6C). […] The concentration of the enzyme used in these in vitro experiments is higher than physiological concentration of esterases (for example, physiological concentration of cholesterol esterase is 7 U/ml).
Increasing either concentration of enzyme or incubation temperature to 45° C. doubles the drug release rate, which was correlating with previous findings.
To analyze the gel degradation mechanism, another prodrug Apn-5-ether-COOH was synthesized (FIG. 2), where hydrocarbon chain (which is bearing terminal carboxylic acid) was connected to the acetaminophen through an ether bond (C—O—C) to prevent the esterolytic cleavage by lipase.

The test system of data set [2] is mesenchymal stem cells (MSCs). Nature of the data set: MSC osteogenic differentiation, alkaline phosphatase staining. Format: cell-based, human. As to conditions: 250 μM, 23 days. The protocol:
Unlike typical fibroblast cell lines used for toxicity screening, cultured mesenchymal stem cells are highly sensitive to the presence of soluble factors and can often loose their capacity for multi-lineage differentiation or differentiate into non-desired lineages depending on the culture conditions. To examine the impact of the acetaminophen amphiphilic prodrugs on multi-lineage differentiation of MSCs, cells were treated with adipogenic and osteogenic induction media in presence of amphiphiles followed by respective colorimetric histological staining.
Osteogenic Differentiation. MSCs were seeded in the wells of 24 well plates, and were culture in MSC expansion media until they reach 90% confluence (note: in control samples there was no amphiphile present, whereas in experimental samples 250 μM of Apn-based amphiphile was present). Osteogenic differentiation was induced by culturing the cells for 23 days in osteogenic induction media (from Lonza—MSCs Osteogenic Single Quote kit) containing dexamethasone, β-glycerophosphate, L-ascorbic acid-2-phosphate, and α-MEM. The media in both groups was changed every 3 days (note: each time while changing the media, 250 μM of Apn-based amphiphiles were added to maintain constant concentration). Osteogenesis was evaluated by cell membrane associated alkaline phosphatase activity. Alkaline phosphatase activity was examined after 23 days by carefully aspirating the media and washing the cells with PBS. The cells were fixed with 3.7% formaldehyde solution for 15 min at room temperature followed by rinsing with distilled water. 0.06% Red Violet LB salt solution in Tris HCl was added with distilled water containing DMF and Naphthol AS MX-PO4. The plates were incubated for 45 minutes at room temperature and then the wells were rinsed 3 times with distilled water and imaged under with inverted phase contrast microscope.

The subject of data set [3] is mesenchymal stem cells (MSCs). Nature of the data set: MSC viability, trypan blue exclusion. Format: cell-based, human. The protocol:
Cytocompatibility. The cytocompatibility of prodrugs generated from small modification of known drugs was investigated. […] To test the cyto compatibility of prodrug-based amphiphiles and bolaamphiphiles, and their effect on cell characteristics such as viability, proliferation, adhesion and cell phenotype, a series of experiments was performed with mesenchymal stem cells (MSCs). To gain more insight into the effect of modification, unmodified drug Apn was used as a control. The viability of control cells and cells treated with Apn, Apn-7-COOH and Apn-8-Apn was examined with trypan blue assay. Use of Mesenchymal stem cells is appropriate given that these systems may be used for localized release likely into connective tissues.
Mesenchymal Stem Cell Culture. Primary human mesenchymal stem cells were maintained in expansion media that consisted of 15% Fetal Bovine Serum (selected for its ability to expand MSCs), 1% (v/v) L-Glutamine, 1% (v/v) Penn-Strep, and α-MEM. All experiments were performed using MSCs at passage number 4-6.
Viability, Adhesion and Proliferation Characteristics. The viability of the cells was examined using trypan blue exclusion. […] The media was then aspirated and the cells were detached with 200 μL of cell dissociated solution (similar quantities of floating cells were observed between the groups, typically 5-10 per well). 300 μL of media was added and the total 500 μL of the cell dispersion was collected in an eppendorf tubes. From this 10 μL of cell dispersion was diluted to 1:1 with 4% trypan blue solution and cells were counted in a hemocytometer to determine the number viable (non-blue) and nonviable (blue) cells. A control for this experiment included cells treated with only phosphate buffer saline (PBS) without an amphiphile. Cell adhesion was quantified by measuring the number of adherent cells on tissue culture surfaces in 96 well plates after incubating with amphiphiles for 12 hours. For proliferation studies, 5000 cells were added to each well of a 96 well plate in 200 μL of MSC cell expansion media, and appropriate amphiphiles were then added and incubated at 37° C. and 5% CO2. Proliferation was quantified by manually tabulating the number of cells within the flask at multiple time points (1, 2, 3, 4, 6 and 8 days) with light microscopy at 10×.

“Also recorded” adds a separate entry of the source.

For the compound `CC(=O)Nc1ccc(OC(=O)CCCCCCC(=O)O)cc1` [Apn-7-COOH], in data set [1] (curcumin released from degradation of hydrogel), the “time after which absorbance of released curcumin did not increase” value was 24 h. Also, in data set [1] (curcumin-encapsulated hydrogel 2 wt %, lipase, 37° C.), the “time of first aliquots showing curcumin absorption maxima (425 nm)” value was determined as 4 h. Moreover, the “burst release of curcumin” value in data set [1] (curcumin-encapsulated hydrogel 2 wt %, lipase, 37° C., absorbance maxima vs time) is “absence of burst release”. In data set [1] (hydrogel 2 wt %, lipase, 37° C., 48 hours), the “products found by thin-layer chromatography after gel degradation” value is “acetaminophen and α,ω-dicarboxylicacid were generated”. In addition, the “time after which the gel completely degraded” value in data set [1] (preformed hydrogel 2 wt %, lipase added, 37° C.) came out at 48 h. The “osteogenic differentiation, alkaline phosphatase (ALP) staining” value in data set [2] is given as “robust capacity; also recorded: equally stained for ALP”. In data set [3] (250 μM, 48 hours incubation), this compound had a viable cells of 87%. In data set [3] (up to 500 μM, 48 hours), the “viability rates over concentration range” value is on record as “not significantly affected”.

(Values after patent US11458153B2, “Drug delivery composition comprising a self-assembled gelator” (The Brigham and Women's Hospital, Inc., priority 2008, dated 2022).)
